The record followed here is paper PMC10143822, “Structural Adaptation of the Single-Stranded DNA-Binding Protein C-Terminal to DNA Metabolizing Partners Guides Inhibitor Design” (Pharmaceutics, 2023).

Like-named read-outs stand apart in the source and are kept apart here. Where a SMILES comes first, the peptide text is derived from it. Primed or numbered codes have the meaning given here. Where no end group is shown, it is not given here. [ ]: non-standard residue; d: D form. 5,6‑carboxyfluorescein = 5,6-carboxyfluorescein; Phe(4-CF3) = N[C@@H](Cc1ccc(C(F)(F)F)cc1)C(=O)O; Phe(3-Cl) = N[C@@H](Cc1cccc(Cl)c1)C(=O)O; Phe(4-Cl) = N[C@@H](Cc1ccc(Cl)cc1)C(=O)O; NMeD = CN[C@@H](CC(=O)O)C(=O)O; Pip′ = not defined here

The target of assay [1] is T1, ExoI (Escherichia coli, UniProt P04995).
T1 construct: His-tag (cleaved yes); host or cells: E. coli BL21 (DE3) pLysS
The assay is described as follows: biochemical. Format: binding, E. coli. How it is done:
(§1) Triplicate measurements were performed using a Clariostar Plus Microplate Reader in 384-well plates for all fluorescence anisotropy (FA) experiments. The settings were 25 °C, excitation at 485 nm, emission at 510 nm, settling time of 0.2 s, and 200 flashes per well.
(§2) Competition fluorescence anisotropy experiments were carried out as follows: protein (0.5 μM either ExoI or RecO) was incubated with 50 nM F-wtSSB peptide and 0–500 μM unlabeled wtSSB (or a variant) peptide for 30 min at room temperature. For direct fluorescence anisotropy measurements, 16 µM ExoI and 7.5 µM RecO were used in the first well. After serial dilution, either 50 nM of F-mSSB or F-sSSB was added to the wells and then incubated for 30 min. Buffers used included 20 mM Tris-HCl (pH 8.0), 100 mM NaCl, 1 mM MgCl2, 1 mM 2-mercaptoethanol, 10% (v/v) glycerol, for ExoI and 20 mM Tris-HCl (pH 8.0), 200 mM NaCl, 1 mM 2-mercaptoethanol, 10% (v/v) glycerol, and 0.01% Triton-X 100 for RecO [37].
(§3) Fluorescence anisotropy values were normalized and are shown as bound fractions (BF, %). BF=r−rmin/λ(rmax−r)+r−rmin, I=2∗PG+S, r=S−PG/I, where r: anisotropy, I: total intensity, P: perpendicular intensity, S: parallel intensity, G: an instrument factor set to 1, BF: ligand fraction bound, and λ=λbound/λunbound=1 .
(§4) Competitive fluorescence anisotropy was analyzed in Origin Pro 9.5, and IC50 values were determined using the Logistic Nonlinear fit function and are shown as plots for each mutated position for each protein in Figures S4 and S6. EC50 values from direct fluorescence anisotropy titrations were plotted in Origin 9.5. Values were determined using the Logistics Nonlinear fit function.

In assay [2] the target is T2, RecO (Escherichia coli, UniProt P0A7H3).
T2 construct: His-tag (TEV site) (N, cleaved yes); made in house; host or cells: E. coli Rosetta cells
The assay is described as follows: biochemical. The format is binding. To be noted: 0.5 μM RecO, 50 nM F-wtSSB tracer. How it is done:
as §1, §2, §3, §4

The target in assay [3] is T3, E. coli Exonuclease I (E. coli, UniProt P04995 1-471).
T3 construct: Exonuclease I of E. coli, from plasmid pET14b-E. coli Exonuclease I (Addgene 104552); The His tag was cut off with thrombin only for the purified protein; also called ExoI; Exol; source: E. coli BL21 (DE3) pLysS, purified (Ni-NTA, heparin); also in cell lysate (pull-down)
T3 sequence: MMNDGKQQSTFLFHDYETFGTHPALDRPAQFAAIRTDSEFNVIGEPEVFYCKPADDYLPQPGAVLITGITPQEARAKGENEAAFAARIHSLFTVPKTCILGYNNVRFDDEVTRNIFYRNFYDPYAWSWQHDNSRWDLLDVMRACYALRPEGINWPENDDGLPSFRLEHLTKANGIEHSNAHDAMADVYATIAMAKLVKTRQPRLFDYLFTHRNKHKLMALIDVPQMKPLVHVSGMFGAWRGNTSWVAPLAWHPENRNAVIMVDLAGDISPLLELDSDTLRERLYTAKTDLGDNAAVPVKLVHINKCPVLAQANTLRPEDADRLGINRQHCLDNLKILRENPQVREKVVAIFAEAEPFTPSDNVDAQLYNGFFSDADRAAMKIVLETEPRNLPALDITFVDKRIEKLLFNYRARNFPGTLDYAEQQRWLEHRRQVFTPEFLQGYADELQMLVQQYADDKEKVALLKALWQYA
In words: fluorescence polarisation; direct fluorescence anisotropy: ExoI serially diluted from 16 µM, 50 nM fluorescein-labelled peptide, 30 min, 25 °C; 20 mM Tris-HCl pH 8.0, 100 mM NaCl, 1 mM MgCl2, 1 mM 2-mercaptoethanol, 10% glycerol. Conditions: both partners purified.

The target of assay [4] is T4, Escherichia coli RecO (Escherichia coli, UniProt P0A7H3 1-242).
T4 construct: RecO of Escherichia coli, synthetic gene in pET28a+ with a TEV site at the 5' end; The His tag was cut off with TEV protease only for the purified protein; source: E. coli Rosetta, purified (Ni-NTA, heparin); also in cell lysate (pull-down); not shown: His tag, N-terminal, cleaved
T4 sequence: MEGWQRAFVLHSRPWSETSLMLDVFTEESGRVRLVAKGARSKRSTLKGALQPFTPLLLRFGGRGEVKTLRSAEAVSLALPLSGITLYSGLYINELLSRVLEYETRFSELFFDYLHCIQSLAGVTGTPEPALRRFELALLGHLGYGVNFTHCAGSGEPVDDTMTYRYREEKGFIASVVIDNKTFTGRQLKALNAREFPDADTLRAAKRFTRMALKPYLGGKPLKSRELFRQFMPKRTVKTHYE
In words: ITC; peptide in the syringe titrated into RecO in the cell; 50 mM HEPES pH 7.5, 50 mM NaCl, 25% glycerol, 1 mM TCEP; model A + B = C, stoichiometry fixed to 1:1, incompetent fraction fitted. Conditions: both partners purified.

The mark [5] stands for this setting: 0–500 μM unlabeled peptide, 30 min room temperature, 20 mM Tris-HCl pH 8.0, 200 mM NaCl, 10% glycerol, 0.01% Triton-X 100, 25 °C, triplicate, read-out: IC50 on RecO, competitive fluorescence anisotropy.

Consider `CC[C@H](C)[C@H](NC(=O)[C@H](CC(=O)O)NC(=O)[C@H](CC(=O)O)N(C)C(=O)[C@H](CC(=O)O)NC(=O)[C@H](Cc1ccccc1)NC(=O)[C@H](CC(=O)O)NC(C)=O)C(=O)N1CCC[C@H]1C(=O)N[C@@H](Cc1ccccc1)C(=O)O` [NM-Asp4] (Ac-DFD[NMeD]DIPF-OH), for which the half-maximal inhibitory concentration (IC50) in assay [1] came to 1.27 ± 0.14 µM; in assay [2] (setting [5]), 0.00385 ± 0.00103 mM.
Taken in the same sequence, the figures for `CC[C@H](C)[C@H](NC(=O)[C@H](CC(=O)O)NC(=O)[C@H](CC(=O)O)NC(=O)[C@H](CC(=O)O)NC(=O)[C@H](Cc1cccc(Cl)c1)NC(=O)[C@H](CC(=O)O)NC(C)=O)C(=O)N1CCC[C@H]1C(=O)N[C@@H](Cc1ccccc1)C(=O)O` [3-Cl-Phe2] (Ac-D[Phe(3-Cl)]DDDIPF-OH) were 2.03 ± 0.51 µM and 0.00344 ± 0.00014 mM.
Turning to `CC(=O)N[C@@H](CC(=O)O)C(=O)N[C@@H](Cc1ccccc1)C(=O)N[C@@H](CC(=O)O)C(=O)N[C@@H](CC(=O)O)C(N)=O` [DFDD] (Ac-DFDD-NH2), the IC50 in assay [1] was 312 ± 16.7 µM; in assay [2] (bound given in mM, read-out: IC50 on RecO, competitive fluorescence anisotropy (no direct inhibitory effect detected)), more than 3 mM.
For the molecule `CC[C@H](C)[C@H](NC(=O)[C@H](CC(=O)O)NC(=O)[C@H](CC(=O)O)NC(=O)[C@H](CC(=O)O)NC(=O)[C@@H](Cc1ccccc1)NC(=O)[C@H](CC(=O)O)NC(C)=O)C(=O)N1CCC[C@H]1C(=O)N[C@@H](Cc1ccccc1)C(=O)O` [D-Phe2] (Ac-D[dF]DDDIPF-OH), the half-maximal inhibitory concentration (IC50) in assay [1] was found to be 3.49 ± 2.41 µM; in assay [2] (setting [5]), 0.00275 ± 0.00059 mM.

B1: F-4CF3-Phe2 (fluorescein-labelled single mutant) (peptide)
peptide: {5,6‑carboxyfluorescein}-GGD[Phe(4-CF3)]DDDIPF
notes: two glycines between the 5,6-carboxyfluorescein and the peptide; E. coli SSB-Ct, residues 171-178; F at position 2 stands for 4-CF3-Phe; numbers count on: the octapeptide (position 1 = SSB residue 171); One of Compounds 54-62 of the Supplementary Material; also called F-mSSB 4CF3-Phe2; source: synthetic peptide
B1 gave a concentration giving a half-maximal response (EC50) in assay [3] of 0.04 ± 0.002 µM.

B2: F-Leu6 (fluorescein-labelled single mutant) (peptide)
peptide: {5,6‑carboxyfluorescein}-GGDFDDDLPF
notes: two glycines between the 5,6-carboxyfluorescein and the peptide; E. coli SSB-Ct, residues 171-178; numbers count on: the octapeptide (position 1 = SSB residue 171); One of Compounds 54-62 of the Supplementary Material; also called F-mSSB Leu6; source: synthetic peptide
In the case of B2, the concentration for a half-maximal effect (EC50) in assay [3] amounted to 0.2 ± 0.03 µM.

B3: F-4CF3-Phe8 (fluorescein-labelled single mutant) (peptide)
peptide: {5,6‑carboxyfluorescein}-GGDFDDDIP[Phe(4-CF3)]
notes: two glycines between the 5,6-carboxyfluorescein and the peptide; E. coli SSB-Ct, residues 171-178; F at position 8 stands for 4-CF3-Phe; numbers count on: the octapeptide (position 1 = SSB residue 171); One of Compounds 54-62 of the Supplementary Material; also called F-mSSB 4CF3-Phe8; source: synthetic peptide
In assay [3], B3 gave a 50% effective concentration (EC50) of 0.09 ± 0.01 µM. This EC50 lies about 2.2-fold lower than the previous one.

B4: F-4Cl-Phe2 (fluorescein-labelled single mutant) (peptide)
peptide: {5,6‑carboxyfluorescein}-GGD[Phe(4-Cl)]DDDIPF
notes: two glycines between the 5,6-carboxyfluorescein and the peptide; E. coli SSB-Ct, residues 171-178; F at position 2 stands for 4-Cl-Phe; numbers count on: the octapeptide (position 1 = SSB residue 171); One of Compounds 54-62 of the Supplementary Material; also called F-mSSB 4Cl-Phe2; source: synthetic peptide
With B4, the 50% effective concentration (EC50) in assay [3] was 0.15 ± 0.02 µM. Compared with the last molecule, the EC50 is about 1.7-fold higher.
Regarding {5,6‑carboxyfluorescein}-DFDDDI[Pip′]F (not fully specified) [F-Pip7 (fluorescein-labelled single mutant)], the EC50 in assay [3] turned out to be 0.09 ± 0.01 µM.

B5: R1-sSSB-Ct (Asp–4Cl-Phe–NM-Asp–Asp–Glu–Leu–Pro–3Cl-Phe) (peptide)
peptide: Ac-D[Phe(4-Cl)][NMeD]DELP[Phe(3-Cl)]
notes: SSB-Ct of E. coli SSB (residues 171-178) with combined modifications, printed in three-letter code; F2 stands for 4Cl-Phe, D3 for NM-Asp, F8 for 3Cl-Phe; numbers count on: the octapeptide (position 1 = SSB residue 171); source: synthetic peptide
On to B5, for which, in assay [4], the dissociation constant Kd was found to be 0.13 µM, the dH is -6.79 kcal/mol and the “stoichiometry N” value stood at 0.935.
